Results: patent US8852587B2 (priority 2008, dated 2014)
Like-named read-outs stand apart in the source and are kept apart here.

Target: PrP^Sc (Mus musculus, UniProt P04925)
Format: binding
[1] = affinity for PrPSc pulldown compared to peptide LH3 (CDR3H)
[2] = pull-down, compared to peptide LH3
[3] = pull-down, compared to peptide LH3 (CDR3H)

PrP^Sc, sequence (P04925 23-230 limits assumed): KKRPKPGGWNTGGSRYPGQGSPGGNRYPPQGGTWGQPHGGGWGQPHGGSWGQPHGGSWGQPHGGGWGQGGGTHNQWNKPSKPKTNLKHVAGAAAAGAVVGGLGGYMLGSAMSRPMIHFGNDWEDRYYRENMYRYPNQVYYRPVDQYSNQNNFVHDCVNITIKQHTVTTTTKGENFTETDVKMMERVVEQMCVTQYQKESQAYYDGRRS

Row | Substance | Specificity | Specificity [3] | further results
1 | H-YFCARWNWERDAMDYWG-OH [CDR3H] | PrP^Sc | – | Affinity: 0
2 | YFAARWNWERDAMDYWG [LH3A3] | PrP^Sc | – | –
3 | YFCAAWNWERDAMDYWG [LH3A5] | PrP^Sc | – | –
4 | YFCADWNWERDAMDYWG [LH3D5] | PrP^Sc | – | change of affinity for PrP^Sc: slightly decreases affinity for PrP^Sc
5 | YFCARANWERDAMDYWG [LH3A6] | PrP^Sc | – | –
6 | YFCARWAWERDAMDYWG [LH3A7] | – | PrP^Sc | Affinity [1]: (+); change of affinity for PrP^Sc [2]: slightly increase affinity for PrP^Sc
7 | YFCARWNAERDAMDYWG [LH3A8] | PrP^Sc | – | –
8 | YFCARWNWARDAMDYWG [LH3A9] | PrP^Sc | – | –
9 | YFCARWNWEADAMDYWG [LH3A10] | – | PrP^C | Specificity [2]: binds to PrP^C
10 | YFCARWNWEDDAMDYWG [LH3D10] | PrP^Sc | – | Affinity: (+); change of affinity for PrP^Sc: slightly increase affinity for PrP^Sc
11 | YFCARWNWERAAMDYWG [LH3A11] | PrP^Sc | – | –
12 | YFCARWNWERDAADYWG [LH3A13] | – | PrP^Sc | Affinity [1]: +; change of affinity for PrP^Sc [2]: increase affinity for PrP^Sc
13 | YFCARWNWERDAMAYWG [LH3A14] | – | PrP^Sc | Affinity [1]: (+); change of affinity for PrP^Sc [2]: slightly increase affinity for PrP^Sc
14 | YFCARWNWERDAMDAWG [LH3A15] | PrP^Sc | – | –
15 | YFCARWNWERDAMRYWG [LH3R14] | PrP^Sc | – | –
16 | YFCARWNWERRAMDYWG [LH3R11] | – | PrP^Sc | Affinity [1]: +; change of affinity for PrP^Sc [2]: increase affinity for PrP^Sc
17 | YFCARWNWRRDAMDYWG [LH3R9] | – | PrP^Sc | Affinity [1]: (+); change of affinity for PrP^Sc [2]: slightly increase affinity for PrP^Sc
